These results are taken from US6479666B2, “Phenyl-keto-imidazolidine thioamide derivatives” (Hoffman-La Roche Inc., priority 2001, dated 2002).

Structures can show the parent of a compound that is named as a salt.

Data set [1] has as its system cynomolgus monkeys (Macaca fascicularis) challenged with Ascaris suum antigen. Description: Acute airway inflammation in the atopic primate. The class given is in vivo. Conditions: p.o., 2 hours prior to antigen challenge; lavage at 24 hour after A. suum antigen challenge. On the procedure:
Example 4. Acute airway inflammation in the atopic primate.
Airway inflammation in the monkey was determined using a modification of the protocol described by Turner et al. (Turner et al., 1994). Adult male cynomolgus monkeys (Macaca fascicularis, Hazelton Labs, Denver, Pa.) weighing between 3.6-5.8 kg were used in these studies.
On the day of each experiment the animals were anesthetized with ketamine hydrochloride, 12 mg/kg, and xylazine, 0.5 mg/kg, intubated with a cuffed endotracheal tube (3 mm, Mallinckrodt Medical, St. Louis, Mo.), then seated in an upright position in a specially designed Plexiglass chair (Plas-Labs, Lansing, Mich.). The endotracheal tube was connected to a heated Fleisch pneumotachograph. Airflow was measured via a Validyn differential pressure transducer (DP 45-24) that was attached to the pneumotachograph. Transpulmonary pressure was measured via a second Validyne transducer (DP 45-24) connected between a sidearm of the tracheal cannula and a 18-gauge intrapleural needle inserted in the intercostal space located below the left nipple. […]
Airway inflammation was induced by exposing the animal to an aerosol of A. Suum extract for 60 sec. […] Airway inflammation was assessed by inserting a pediatric bronchoscope into the airway lumen down to about the 4 or 5th generation bronchi and gently lavaging with 3 X 2 ml aliquots of sterile Hanks Balanced Salt Solution. […]

For data set [2], the target named is T1, Ramos cells bearing cell-surface VLA-4 (α4β1 integrin) binding to VCAM-1 (Homo sapiens, UniProt P05556+P13612).
T1 construct: Ramos cells bearing cell-surface VLA-4; endogenous in cells; host or cells: Ramos cells (VLA-4); VCAM-1 made in CHO cells
As to the kind of experiment: Ramos (VLA-4) / VCAM-1 Cell-Based Screening Assay (cell adhesion). Conditions: Calcein-AM labelled Ramos cells, VCAM-1 coated plates. On the procedure: 2. Ramos (VLA-4) / VCAM-1 Cell-Based Screening Assay Protocol
Soluble recombinant human VCAM-1 (mixture of 5- and 7-Ig domain) was purified from CHO cell culture media by immunoaffinity chromatography and maintained in a solution containing 0.1 M Tris-glycine (pH 7.5), 0.1 M NaCl, 5 mM EDTA, 1 mM PMSF, […] NaN3 and 10 μg/mL leupeptin. Calcein-AM was purchased from Molecular Probes Inc.
VLA-4 (α4β1 integrin) antagonist activity, defined as ability to compete with cell-surface VLA-4 for binding to immobilized VCAM-1, was quantitated using a Ramos-VCAM-1 cell adhesion assay. Ramos cells bearing cell-surface VLA-4, were labeled with a fluorescent dye (Calcein-AM) and allowed to bind VCAM-1 in the presence or absence of test compounds. A reduction in fluorescence intensity associated with adherent cells (% inhibition) reflected competitive inhibition of VLA-4 mediated cell adhesion by the test compound. Initially, this entailed coating 96 well plates (Nunc Maxisorp) with recombinant human VCAM-1 (100 ng in 100 μl PBS), sealing each plate and allowing the plates to stand at 4° C. for ^˜18 hr. The VCAM-coated plates were subsequently washed twice with 0.05% Tween-20 in PBS, and then blocked for 1 hr (room temperature) with 200 μl of Blocking Buffer (1% BSA/0.02% thimerosal) to reduce non-specific binding. Following the incubation with Blocking Buffer, plates were inverted, blotted and the remaining buffer aspirated. Each plate was then washed with 300 μl PBS, inverted and the remaining PBS aspirated.
Test compounds were dissolved in 100% DMSO and then diluted 1:25 in VCAM Cell Adhesion Assay Buffer (4 mM CaCl2, 4 mM MgCl2 in 50 mM TRIS-HCl, pH 7.5) (final DMSO=4%). A series of eight 1:4 dilutions were performed for each compound (general concentration range of 1 nM-12,500 nM). 100 μl/well of each dilution was added to the VCAM-coated plates, followed by 100 μl of Ramos cells (200,000 cells/well in 1% BSA/PBS). Plates containing test compounds and Ramos cells were allowed to incubate for 45 min at room temperature, after which 165 μl/well PBS was added. Plates were inverted to remove non-adherent cells, blotted and 300 μl/well PBS added. Plates were again inverted, blotted and the remaining buffer gently aspirated. 100 μl Lysis Buffer (0.1% SDS in 50 mM TRIS-HCl, pH 8.5) was added to each well and agitated for 2 min on a rotary shaking platform. The plates were then read for fluorescence intensity on a Cytofluor 2300 (Millipore) fluorescence measurement system (excitation=485 nm, emission=530 nm).

Data set [3] addresses T2, VLA-4 (α4β1 integrin) binding to immobilized VCAM-1 (Homo sapiens, UniProt P05556+P13612).
T2 construct: followed by 10 μl of Ramos cell-derived VLA-4; endogenous in cells; host or cells: Ramos cells (VLA-4 prepared from them)
As to the kind of experiment: VLA-4/VCAM-1 Screening Assay (solid-phase dual antibody ELISA). Conditions: Ramos cell-derived VLA-4, recombinant human VCAM-1 coated plates. On the procedure:
1. VLA-4/VCAM-1 Screening Assay
VLA-4 antagonist activity, defined as ability to compete for binding to immobilized VCAM-1, was quantitated using a solid-phase, dual antibody ELISA. VLA-4 (α4β1 integrin) bound to VCAM-1 is detected by a complex of anti-integrin β1 antibody: HRP-conjugated anti-mouse IgG: chromogenic substrate (K-Blue). Initially, this entailed coating 96 well plates (Nunc Maxisorp) with recombinant human VCAM-1 (0.4 μg in 100 μl PBS), sealing each plate and then allowing the plates to stand at 4° C. for ^˜18 hr. […] On the day of assay, all plates are washed twice with VCAM Assay Buffer (200 μl/well of 50 mM Tris-HCl, 100 mM NaCl, 1 mM MnCl2, 0.05% Tween 20; pH 7.4). Test compounds are dissolved in 100% DMSO and then diluted 1:20 in VCAM Assay Buffer supplemented with 1 mg/mL BSA (i.e., final DMSO=5%). A series of 1:4 dilutions are performed to achieve a concentration range of 0.005 nM−1.563 μM for each test compound. 100 μl per well of each dilution is added to the VCAM-coated plates, followed by 10 μl of Ramos cell-derived VLA-4. These plates are sequentially mixed on a platform shaker for 1 min, incubated for 2 hr at 37° C., and then washed four times with 200 μl/well VCAM Assay Buffer. 100 μl of mouse anti-human integrin β1 antibody is added to each well (0.6 μg/mL in VCAM Assay Buffer+1 mg/mL BSA) and allowed to incubate for 1 hr at 37° C. At the conclusion of this incubation period, all plates are washed four times with VCAM Assay Buffer (200 μl/well). A corresponding second antibody, HRP-conjugated goat anti-mouse IgG (100 μl per well @ 1:800 dilution in VCAM Assay Buffer+1 mg/mL BSA), is then added to each well, followed by a 1 hr incubation at room temperature and concluded by three washes (200 μl/well) with VCAM Assay Buffer. Color development is initiated by addition of 100 μl K-Blue per well (15 min incubation, room temp) and terminated by addition of 100 μl Red Stop Buffer per well. All plates are then read in a UV/V is spectrophotometer at 650 nM. Results are calculated as % inhibition of total binding (i.e., VLA-4+VCAM-1 in the absence of test compound).

T1 sequence (P13612 34-1032): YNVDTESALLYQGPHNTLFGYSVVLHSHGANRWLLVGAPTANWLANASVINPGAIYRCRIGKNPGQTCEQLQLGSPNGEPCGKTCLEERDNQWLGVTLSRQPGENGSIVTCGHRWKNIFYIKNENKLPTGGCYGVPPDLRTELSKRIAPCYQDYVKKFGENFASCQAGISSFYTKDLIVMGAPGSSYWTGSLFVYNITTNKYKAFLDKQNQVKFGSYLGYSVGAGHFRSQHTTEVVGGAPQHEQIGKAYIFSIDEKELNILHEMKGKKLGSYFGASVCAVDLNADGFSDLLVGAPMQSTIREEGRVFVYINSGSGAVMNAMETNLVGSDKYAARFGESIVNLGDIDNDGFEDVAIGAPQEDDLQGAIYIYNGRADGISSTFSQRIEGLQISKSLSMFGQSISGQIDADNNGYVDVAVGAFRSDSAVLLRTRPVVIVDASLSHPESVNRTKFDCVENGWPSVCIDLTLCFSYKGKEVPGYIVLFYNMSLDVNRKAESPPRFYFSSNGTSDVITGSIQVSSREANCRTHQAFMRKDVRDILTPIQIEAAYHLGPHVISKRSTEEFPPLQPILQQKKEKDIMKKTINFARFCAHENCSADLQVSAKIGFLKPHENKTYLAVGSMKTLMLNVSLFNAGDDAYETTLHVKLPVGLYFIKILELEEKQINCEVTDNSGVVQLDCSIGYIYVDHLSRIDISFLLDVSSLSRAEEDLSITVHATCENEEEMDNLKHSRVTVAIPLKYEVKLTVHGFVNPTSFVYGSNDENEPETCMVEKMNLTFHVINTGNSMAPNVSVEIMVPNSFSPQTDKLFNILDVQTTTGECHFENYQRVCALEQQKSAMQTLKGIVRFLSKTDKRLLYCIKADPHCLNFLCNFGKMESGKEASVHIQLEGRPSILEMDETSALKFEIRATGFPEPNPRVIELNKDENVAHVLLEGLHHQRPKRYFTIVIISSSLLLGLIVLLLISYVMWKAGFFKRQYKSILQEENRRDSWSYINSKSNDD
T1 sequence (P05556 21-798): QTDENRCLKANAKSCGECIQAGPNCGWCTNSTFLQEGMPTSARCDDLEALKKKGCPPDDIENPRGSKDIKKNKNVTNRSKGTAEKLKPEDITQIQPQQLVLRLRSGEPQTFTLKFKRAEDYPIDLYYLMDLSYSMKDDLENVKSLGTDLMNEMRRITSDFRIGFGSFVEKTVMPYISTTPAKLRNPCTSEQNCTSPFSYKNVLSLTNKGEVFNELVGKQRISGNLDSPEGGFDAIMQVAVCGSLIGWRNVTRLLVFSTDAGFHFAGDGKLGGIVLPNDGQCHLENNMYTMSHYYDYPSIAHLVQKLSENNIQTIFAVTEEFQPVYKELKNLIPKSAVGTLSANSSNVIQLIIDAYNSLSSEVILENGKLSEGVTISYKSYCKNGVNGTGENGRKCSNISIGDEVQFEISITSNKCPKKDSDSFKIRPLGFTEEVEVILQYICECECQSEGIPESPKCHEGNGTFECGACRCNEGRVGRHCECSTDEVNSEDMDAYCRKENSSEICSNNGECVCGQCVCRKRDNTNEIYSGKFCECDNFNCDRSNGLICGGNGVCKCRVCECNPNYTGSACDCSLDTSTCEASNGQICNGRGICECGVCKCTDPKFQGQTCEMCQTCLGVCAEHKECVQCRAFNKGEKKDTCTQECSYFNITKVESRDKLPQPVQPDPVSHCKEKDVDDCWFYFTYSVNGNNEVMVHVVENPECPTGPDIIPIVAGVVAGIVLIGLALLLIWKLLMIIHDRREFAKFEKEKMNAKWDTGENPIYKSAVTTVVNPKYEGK
T2 sequence (P13612 34-1032): as the sequence (P13612 34-1032) above
T2 sequence (P05556 21-798): as the sequence (P05556 21-798) above

Turning to `COCCC1(C(=S)N[C@@H](Cc2ccc([N+](=O)[O-])cc2)C(=O)OC)CCCC1` [Example 1, N-[[1-(2-methoxyethyl)cyclopentyl]thioxomethyl]-4-nitro-L-phenylalanine methyl ester], in data set [1], the “number and percent of inflammatory cells present in the lavage fluid relative to vehicle treated control animals” value was “significant decrease”.

In the case of `COCCC1(C(=S)N[C@@H](Cc2ccc(NC(=O)c3c(Cl)cccc3Cl)cc2)C(=O)O)CCCC1` [Example 3, 4-[[(2,6-dichlorophenyl)carbonyl]amino]-N-[[1-(2-methoxy-ethyl)cyclopentyl]thioxomethyl]-L-phenylalanine], the results for the half-inhibitory concentration (IC50) in data set [2] and in data set [3] were 66.5 nM and 4 nM, respectively.

With `CC(=O)NCCC1(C(=S)N[C@@H](Cc2ccc(NC(=O)c3c(Cl)cccc3Cl)cc2)C(=O)O)CCCC1` [Example 10, N-[[1-[2-(acetylamino)ethyl]cyclopentyl]thioxomethyl]-4-[[(2,6-dichlorophenyl)carbonyl]amino]-L-phenylalanine], the IC50 (in general, the concentration needed to halve the response being measured) is 33 nM in data set [2] and 1.5 nM in data set [3].

For `CNC(=O)NCCC1(C(=S)N[C@@H](Cc2ccc(NC(=O)c3c(Cl)cccc3Cl)cc2)C(=O)O)CCCC1` [Example 11], the results for the IC50 in data set [2] and in data set [3] were 42.5 nM and 5.6 nM, respectively.

Take `Cc1cccc(Cl)c1C(=S)N[C@@H](Cc1ccc(NC(=O)c2c(Cl)cccc2Cl)cc1)C(=O)O` [Example 18, 4-[[(2,6-dichlorophenyl)carbonyl]amino]-N-[(2-chloro-6-methylphenyl)thioxomethyl]-L-phenylalanine]: the IC50 was 60 nM in data set [2] and 0.47 nM in data set [3].

`CCc1cccc(C)c1C(=S)N[C@@H](Cc1ccc(NC(=O)c2c(Cl)cccc2Cl)cc1)C(=O)O` [Example 25, 4-[[(2,6-dichlorophenyl)carbonyl]amino]-N-[(2-ethyl-6-methylphenyl)thioxomethyl]-L-phenylalanine]: the figures for the IC50 in data set [2] and in data set [3] were 101 nM and 6 nM, respectively.

On to `CCc1cccc(C)c1C(=S)N[C@@H](Cc1ccc(N2C(=O)[C@@H](Cc3cccnc3)N(C(C)=O)[C@@H]2c2ccccc2)cc1)C(=O)O` [Example 29, 4-[(2S,4R)-3-acetyl-5-oxo-2-phenyl-4-[(pyridin-3-yl)methyl]imidazolidin-1-yl]-N-[(2-ethyl-6-methylphenyl)thioxomethyl]-L-phenylalanine], for which the IC50 in data set [2] is 220 nM.

Consider `O=C(Nc1ccc(C[C@H](NC(=S)c2ccccc2F)C(=O)O)cc1)c1c(Cl)cccc1Cl` [Example 34, 4-[[(2,6-dichlorophenyl)carbonyl]amino]-N-[(2-fluorophenyl)thioxomethyl]-L-phenylalanine], for which the IC50 in data set [2] was 4180 nM.

In the case of `O=C(Nc1ccc(C[C@H](NC(=S)c2ccccc2C(F)(F)F)C(=O)O)cc1)c1c(Cl)cccc1Cl` [Example 39, 4-[[(2,6-dichlorophenyl)carbonyl]amino]-N-[[2-(trifluoromethyl)phenyl]thioxomethyl]-L-phenylalanine], the half-inhibitory concentration (IC50) in data set [2] was 784 nM.

Take `CS(=O)(=O)CCCCC1(C(=S)N[C@@H](Cc2ccc(NC(=O)c3c(Cl)cccc3Cl)cc2)C(=O)O)CCCC1` [Example 50, 4-[[(2,6-dichlorophenyl)carbonyl]amino]-N-[[1-[4-(methylsulfonyl)butyl]cyclopentyl]thioxomethyl]-L-phenylalanine]: the melting point (in general, the temperature of the solid-liquid transition) fell in the range of 200 to 202 °C. The IC50 in data set [2] is 30 nM.

Take `Cc1ccnc(C)c1C(=O)Nc1ccc(C[C@H](NC(=S)C2(CCCCS(C)(=O)=O)CCCC2)C(=O)O)cc1` [Example 53, 4-[[(2,4-dimethylpyridin-3-yl)carbonyl]amino]-N-[[1-[4-(methylsulfonyl)butyl]-cyclopentyllthioxomethyl]-L-phenylalaninetrifluoroacetic acid salt]: the IC50 in data set [2] is 148 nM.

With `CS(=O)(=O)CCCCC1(C(=S)N[C@@H](Cc2ccc(NC(=O)c3c(Cl)cccc3Cl)cc2)C(=O)O)CCC1` [Example 62, 4-[[(2,6-dichlorophenyl)carbonyl]amino]-N-[[1-[4-(methylsulfonyl)-butyl]cyclobutyl]thioxomethyl]-L-phenylalanine], in data set [2], the IC50 was 8 nM.

In the case of `CSCCCC1(C(=S)N[C@@H](Cc2ccc(NC(=O)c3c(Cl)cccc3Cl)cc2)C(=O)O)CCC1` [Example 71, 4-[[(2,6-dichlorophenyl)carbonyl]amino]-N-[[1-[3-(methylthio)propyl]cyclobutyl]-thioxomethyl]-L-phenylalanine], the melting point lay within 186 to 188 °C. The half-maximal inhibitory concentration (IC50) in data set [2] was 926 nM.

`CS(=O)(=O)CCCC1(C(=S)N[C@@H](Cc2ccc(NC(=O)c3c(Cl)cccc3Cl)cc2)C(=O)O)CCC1` [Example 78, 4-[[(2,6-dichlorophenyl)carbonyl]amino]-N-[[1-[3-(methylsulfonyl)propyl]cyclobutyl]thioxomethyl]-L-phenylalanine]: in data set [2], the IC50 was 341 nM.

Take `Cc1cc(C(F)(F)F)c(C(=O)Nc2ccc(C[C@H](NC(=S)C3(CCCCS(C)(=O)=O)CCC3)C(=O)O)cc2)c(C)n1` [Example 84]: in data set [2], the IC50 is 5.5 nM.
